The supplement of paper PMC7108870

What was measured:
HEK293sieSTAT3(Y640F) [1] = assay: drug sensitivity score (DSS), cytotoxicity CellTox Green (DSS (dimensionless)); higher = more cytotoxic; extreme values may be limits of the assay; details: 72 h; STAT3 variant: Y640F (constitutively active)
Summary of the method: (§1)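 HEK293 cells with a STAT3-dependent luciferase reporter, overexpressing either wild-type or mutant STAT3, were dispensed (20 μl at 100,000 cells/ml) into 384-well plates holding compounds acoustically pre-plated at 5 concentrations in 10-fold dilutions. The plates were kept for 72 hours at 37°C and 5% CO2, then CellTox Green fluorescence (485/520 nm) followed by CellTiter-Glo luminescence was read on a PHERAstar FS. Breeze was used to compute a drug sensitivity score from the dose-response curve area after normalisation to negative and positive control wells, and each value comes from one representative of two experiments.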

HEK293sieSTAT3(wt) [2] = assay: as above; details: 72 h; STAT3 variant: wild type
Summary of the method: as §1

HEK293sieSTAT3(Y640F) [3] = assay: drug sensitivity score (DSS), viability CellTiter-Glo (DSS (dimensionless)); higher = more growth inhibition; extreme values may be limits of the assay; details: 72 h; STAT3 variant: Y640F (constitutively active)
Summary of the method: as §1

HEK293sieSTAT3(wt) [4] = assay: as above; details: 72 h; STAT3 variant: wild type
Summary of the method: as §1

Row | Compound | drug sensitivity score (HEK293sieSTAT3(Y640F) [1]) | drug sensitivity score (HEK293sieSTAT3(wt) [2]) | drug sensitivity score (HEK293sieSTAT3(Y640F) [3]) | drug sensitivity score (HEK293sieSTAT3(wt) [4])
1 | COc1cc(Nc2ncc(F)c(Nc3ccc4c(n3)N(COP(=O)(O)O)C(=O)C(C)(C)O4)n2)cc(OC)c1OC [Fostamatinib] (top concentration tested 2500 nM) | 2.07 | 3.18 | 4.33 | 4.18
2 | C[C@]12CC[C@@H]3c4ccc(O)cc4C[C@@H](CCCCCCCCC[S+]([O-])CCCC(F)(F)C(F)(F)F)[C@H]3[C@@H]1CC[C@@H]2O (stereo partly drawn) [Fulvestrant] (top concentration tested 1000 nM) | 0 | 0.46 | 1.69 | 1.8
3 | O=C(NOCCO)c1ccc2cncn2c1Nc1ccc(I)cc1F [GDC-0623] (top concentration tested 2500 nM) | 0 | 0 | 0 | 0
4 | Cn1nccc1Nc1nccc(-c2ccn([C@H](CO)c3ccc(Cl)c(F)c3)c(=O)c2)n1 [GDC-0994] (top concentration tested 10000 nM) | 0 | 0 | 8.52 | 6.43
5 | CNc1nc(Nc2cn(C(C)(C)C#N)nc2C)ncc1C(F)(F)F [GNE-0877] (top concentration tested 1000 nM) | 0 | 0 | 3.78 | 0.56
6 | CCNc1nc(Nc2cc(F)c(C(=O)N3CCOCC3)cc2OC)ncc1C(F)(F)F [GNE-7915] (top concentration tested 1000 nM) | 0 | 0 | 4.87 | 2.71
7 | CCCc1cc(C)[nH]c(=O)c1CNC(=O)c1cc(-c2ccnc(N3CCN(C)CC3)c2)cc2c1cnn2C(C)C [GSK343] (top concentration tested 10000 nM) | 5.89 | 6.89 | 6.55 | 7.6
8 | CCCOc1ccn2c(C(C)=O)cc(-c3ccccc3S(C)(=O)=O)c2c1 [GSK2801] (top concentration tested 10000 nM) | 0 | 0 | 0 | 0
9 | CCOC(=O)CCNc1cc(N2CCc3ccccc3CC2)nc(-c2ccccn2)n1 [GSK-J4] (top concentration tested 100000 nM) | 10.8 | 10.9 | 18.8 | 19.4
10 | C[C@@H]1C=C2C(=O)O[C@@H]3CC[C@H](C1)[C@]23O [Galiellalactone] (top concentration tested 25000 nM) | 0.48 | 3.45 | 4.57 | 4.61
11 | Cc1cccc(-c2nn3c(c2-c2ccnc4ccc(C(N)=O)cc24)CCC3)n1 [Galunisertib] (top concentration tested 1000 nM) | 1.47 | 0 | 0 | 0
12 | Cc1cc(Nc2cc(CN3CCOCC3)c3nc(C)c(Cc4ccc(Cl)cc4F)n3n2)n[nH]1 [Gandotinib] (top concentration tested 10000 nM) | 2.66 | 6.79 | 5.34 | 8.78
13 | CC(C)c1cc(-c2n[nH]c(=O)n2-c2ccc3c(ccn3C)c2)c(O)cc1O [Ganetespib] (top concentration tested 1000 nM) | 6.77 | 23.1 | 20.6 | 27.4
14 | CN(C)C1CCN(C(=O)c2ccc(NC(=O)Nc3ccc(-c4nc(N5CCOCC5)nc(N5CCOCC5)n4)cc3)cc2)CC1 [Gedatolisib] (top concentration tested 1000 nM) | 0 | 0.82 | 12.9 | 9.54
15 | COc1cc2ncnc(Nc3ccc(F)c(Cl)c3)c2cc1OCCCN1CCOCC1 [Gefitinib] (top concentration tested 10000 nM) | 0 | 1.5 | 1.88 | 3.96
16 | Nc1ccn([C@@H]2O[C@H](CO)[C@@H](O)C2(F)F)c(=O)n1 [Gemcitabine] (top concentration tested 1000 nM) | 2.77 | 4.58 | 14.6 | 19.5
17 | CCN(CC)Cc1ccc2cc(COC(=O)Nc3ccc(C(=O)NO)cc3)ccc2c1 [Givinostat] (top concentration tested 1000 nM) | 4.23 | 6.08 | 10.8 | 11.6
18 | CN1CC[C@@H](NC(=O)Nc2ccc(C#N)cc2)C[C@@H]1c1nc2ccccc2[nH]1 [Glasdegib] (top concentration tested 1000 nM) | 0 | 0 | 3.01 | 0
19 | CN1CCN(C2CCN(C(=O)Nc3cc(Oc4ccc(NC(=O)C5(C(=O)Nc6ccc(F)cc6)CC5)c(F)c4)ccn3)CC2)CC1 [Golvatinib] (top concentration tested 2500 nM) | 0 | 0.24 | 2.77 | 1.49
20 | CC(C)C[C@H](NC(=O)[C@@H](COC(C)(C)C)NC(=O)[C@H](Cc1ccc(O)cc1)NC(=O)[C@H](CO)NC(=O)[C@H](Cc1c[nH]c2ccccc12)NC(=O)[C@H](Cc1cnc[nH]1)NC(=O)[C@@H]1CCC(=O)N1)C(=O)N[C@@H](CCCNC(=N)N)C(=O)N1CCC[C@H]1C(=O)NNC(N)=O [Goserelin] (top concentration tested 10000 nM) | 0 | 0 | 2.1 | 1.57
21 | O=S(=O)(c1cccc2c(O)nccc12)N1CCCNCC1 [Hydroxyfasudil] (top concentration tested 37500 nM) | 0 | 0 | 0.45 | 5.7
22 | NC(=O)NO [Hydroxyurea] (top concentration tested 100000 nM) | 0 | 0 | 4.19 | 1.75
